What was measured:
[1] = biological target: Thymidine kinase (Human herpesvirus 2); test: Inhibition of TdR phosphorylation using thymidine kinase (TK) assay for herpes simplex virus type 2 (HSV-2).
[2] = biological target: Thymidine kinase (Human herpesvirus 2); test: as above; remark: listed apart in the source

IC50 [1] [µM]	Ki [2] [µM]	SMILES
40		O=c1[nH]c(NCCCCCO)nc2nc[nH]c12
10		O=c1[nH]c(Nc2ccc3ccccc3c2)nc2nc[nH]c12
40		O=c1[nH]c(Nc2ccc(C(F)(F)F)cc2)nc2nc[nH]c12
5.5		O=c1[nH]c(NCc2ccc(Cl)cc2)nc2nc[nH]c12
20		O=c1[nH]c(Nc2cccc(CO)c2)nc2nc[nH]c12
20		O=c1[nH]c(Nc2ccc(O)cc2)nc2nc[nH]c12
2.5		O=c1[nH]c(Nc2ccc(F)c(Cl)c2)nc2nc[nH]c12
1.3		O=c1[nH]c(Nc2ccc(Br)c(Br)c2)nc2nc[nH]c12
6		Cc1ccc(Nc2nc3nc[nH]c3c(=O)[nH]2)cc1
2.2		O=c1[nH]c(Nc2ccc(F)c(F)c2)nc2nc[nH]c12
4		CCc1cccc(Nc2nc3nc[nH]c3c(=O)[nH]2)c1
	2	CCCCCCNC1=NC(=O)C2N=CN([C@H]3C[C@H](O)[C@@H](CO)O3)C2=N1 (stereo partly specified)
10		CCCCCCNc1nc2nc[nH]c2c(=O)[nH]1 [2-Hexylamino-1,9-dihydro-purin-6-one]

SMILES	IC50 [1] [µM]	Ki [2] [µM]
O=c1[nH]c(Nc2ccc(Br)cc2)nc2nc[nH]c12	0.6	
O=c1[nH]c(Nc2cccc(Cl)c2)nc2nc[nH]c12	0.35	
O=c1[nH]c(Nc2cccc(C(F)(F)F)c2)nc2nc[nH]c12 [2-(3-Trifluoromethyl-phenylamino)-1,9-dihydro-purin-6-one]	0.1	

— BindingDB's records for doi:10.1021/jm00163a033 (University of Massachusetts Medical School, 1990)
